These results are taken from patent EP4186514A1, “PHARMACEUTICAL COMPOSITION FOR PREVENTING OR TREATING CHOLANGITIS OR LIVER DISEASE CAUSED BY CHOLANGITIS COMPRISING ADENOSINE DERIVATIVE” (Future Medicine Co., Ltd., priority 2021, dated 2023).

The target of one data set is T1, A1 adenosine receptor (Homo sapiens, UniProt P30542).
T1 construct: expressed in transfected cells; host or cells: CHO cells (ATCC No. CCL-61)
T1 sequence (P30542 1-326): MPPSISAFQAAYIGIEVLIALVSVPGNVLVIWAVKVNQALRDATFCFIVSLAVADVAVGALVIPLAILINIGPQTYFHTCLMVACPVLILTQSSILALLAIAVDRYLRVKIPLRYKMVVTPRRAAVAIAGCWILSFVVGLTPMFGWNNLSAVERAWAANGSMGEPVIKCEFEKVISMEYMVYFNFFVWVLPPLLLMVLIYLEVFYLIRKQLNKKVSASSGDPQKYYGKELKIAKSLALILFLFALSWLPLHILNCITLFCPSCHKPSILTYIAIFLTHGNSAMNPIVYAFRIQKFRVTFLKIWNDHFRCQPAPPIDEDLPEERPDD
Briefly: Radioligand binding affinity, A1 adenosine receptor ([3H]CCPA, CHO cells). More on the design: % hA1: dose or concentration left out as unconfirmed. The following applies: percentage inhibition of specific binding of [3H]CCPA.

In a further data set the test system is Sprague Dawley rats. Briefly: Toxicity after intraperitoneal injection, rats. In kind it is in vivo. As to conditions: intraperitoneal 20, 10 and 1 mg/kg.
In the next data set the test system is rats. Briefly: Single-dose toxicity in rats. The following applies: summary Table 11.
The subject of a further data set is BDL mouse model. Briefly: Efficacy in bile duct ligation (BDL) mouse model of cholangitis and liver disease. Type of data set: in vivo, C57BL/6 mice. The following applies: for Hyaluronic acid values reduced: serum ELISA, compared to BDL control group (G2). On the procedure:
After 23 C57BL/6 mice were prepared and subjected to quarantine and acclimation, a bile duct ligation (BDL) surgery and a sham surgery were performed by dividing the animals into groups.
The BDL rodent model is one of the most commonly used methods to induce obstructive cholestatic injury (Tag, C. G et al., Bile Duct Ligation in Mice: Induction of Inflammatory Liver Injury and Fibrosis by Obstructive Cholestasis, J. Vis. Exp. (96), e52438, doi: 10.3791/52438 (2015)). The BDL model induces liver fibrosis and inflammation by causing obstructive cholestasis, and since such symptoms are generally observed in patients with PBC after stage II, the corresponding model may adequately reflect an important aspect of PBC pathology. The advantages of the BDL model are technical validity, reproducibility, and the short time it takes to reach the pathogenomonic status of human portal hypertension.
The surgery day was set to day 0, and the test material was orally administered once a day for 2 weeks from day 1 to day 14. The dose was 10 mL/kg based on the body weight measured before administration. As a test material, a compound of formula A mixed with 0.5% methylcellulose (MC), which is a vehicle, was used, and only the vehicle was used in the control.
The treatment contents of each group are summarized as in the following Table 1.
Blood was collected through the abdominal vein under respiratory anesthesia on day 14, and serum was isolated. After blood collection, liver tissue was collected and weighed, half of the left lateral lobe from the tissue was placed in a tube and immersed in liquid nitrogen, and the other half was fixed in neutral formalin. • Blood biochemical analysis: aspartate aminotransferase (AST), alanine aminotransferase (ALT), alkaline phosphatase (ALP), γ-glutamyl transpeptidase (GGT) and total bilirubin (T-BIL) were measured using a serum biochemical analyzer (Accute, Toshiba). In addition, after blood collection, the body weight was measured by collecting liver tissue. • mRNA expression: RNA was extracted using a portion of the left lateral lobe removed from the liver tissue, cDNA was synthesized using an RNase inhibitor (DR22-R10k, Solgent, Korea) and DiaStar ™ RT Kit, and qRT-PCR was performed using Power SYBR Green PCR Master Mix (Applied Biosystems by Thermo Fisher Scientific, USA).
The following Table 2 lists sequences of primers of mouse Gapdh, Acta2(actin alpha 2 chain), Col1a1(proalpha1(I) chain) and tissue inhibitor of metalloproteinases-1 (Timp1) used for qRT-PCR.
• Analysis of cytokine levels: TNF-α, IL-1β and hyaluronic acid levels in serum were measured using an ELISA kit. • Analysis of hydroxyproline: a portion of the left lateral lobe of liver tissue was extracted, and the hydroxyproline value of liver lysate was measured by a microplate reader (SpectraMax ABS Plus, Molecular Devices) using a hydroxyproline assay kit (Abcam).
The experimental results are shown as mean ± SD, and the test material-administered group was compared with the vehicle control (BDL, G2). Statistical analysis was performed using one-way ANOVA followed by Fisher's least significant difference test using GraphPad Prism (version 5.01) and SPSS (version 24) software. P < 0.05 was considered statistically significant.
A general note: ELISA stands for enzyme-linked immunosorbent assay.

Data set [1] can be described thus: Pharmacokinetic test in dogs (Experimental Example 6). Type of data set: in vivo. The following applies: dog, plasma, maximum (Experimental Example 6), read-out: half-life T1/2. On the procedure:
In order to test the ADME properties of the adenosine derivative of the inventive concept after oral administration, pharmacokinetic properties of the compound of the formula A were measured in vivo.
Intravenous administration was performed through a tube inserted into the femoral vein, and oral administration was performed using oral gavage.
After the administration, the experimental animals' blood was taken at predetermined time intervals for 24 hours. Then, the blood was centrifuged to separate plasma. The plasma samples were pretreated with a suitable organic solvent, and then the concentration of the plasma samples was analyzed by LC-MS/MS. The blood concentration-time data of the compound of the formula A was analyzed using WinNonlin (Pharsight, USA), and graphs of the blood concentration-time data are shown in FIGS. 5 through 9. The results of noncompartmental pharmacokinetic parameters calculated from the blood concentration-time data are shown in Tables 5 through 9. In FIGS. 5 through 9, I.V. represents an intravenous administration group, P.O. represents an oral administration group, and the definition of each parameter in Tables 5 through 9 is shown in Table 10.
FIG. 8 and Table 8 show a graph and parameter values obtained from the blood concentration-time data of Experimental Example 6 (6-1, 6-2 and 6-3). […]

The next data set has as its system ICR mice. Briefly: Toxicity after intraperitoneal injection, mice. As to conditions: intraperitoneal 20, 10 and 1 mg/kg. In kind it is in vivo.
The nature of data set [2]: Plasma stability, rat plasma. In kind it is in vitro ADME. On the procedure: In order to test the physicochemical properties of the adenosine derivative of the inventive concept, experiments were conducted on the compound of the formula A in vitro, and the results are shown in Table 3. Plasma stability and protein binding were measured using rat and human plasma.
Setting [3] is: 10 mg/kg oral once a day (G3), serum day 14, compared with BDL control group (G2).

Where only a bound is given, the exact number is not on record here.

Method for A1 adenosine receptor: CHO cells (ATCC No. CCL-61), in which A1 and A3 adenosine receptors were expressed, were cultured in F-12 media (Gibco, U.S.A.) supplemented with 10% fetal bovine serum (FBS) and penicillin/streptomycin (100 units/ml and 100 g/ml), at 37° C. in a 5% CO2 atmosphere. […] Incubation for 1 hr in a 37° C. incubator was followed by rapid filtration in a vacuum using a cell collector (TOMTEC, U.S.A.). Subsequently, the test tubes were washed three times with 3 ml of the buffer before radioactivity was measured using a γ-counter. […] Ki for binding affinity was determined by subtracting the non-specific binding value from the total binding value. On the basis of the specific binding values, the samples were analyzed for binding affinity to various adenosine receptors.
Method for ICR mice: (§1) The Adenosine Derivative of the present invention were assayed for cytotoxicity in animals.
Method for Sprague Dawley rats: as §1

For `O[C@@H]1[C@H](O)CS[C@H]1n1cnc2c(NCc3cccc(Cl)c3)nc(Cl)nc21` [Example 2, (2R,3R,4S)-2-(2-chloro-6-(3-chlorobenzylamino)-9H-purin-9-yl)tetrahydrothiophen-3,4-diol], on A1 adenosine receptor, the “% hA1” value is recorded as 37.9%. The “weight gain or feed intake versus control group” value with Sprague Dawley rats and in the data set with ICR mice was “No difference” each time. The death result with Sprague Dawley rats (observation for 24 hrs) and with ICR mice (observation for 24 hrs) was “No death was observed” throughout. Further, the “Toxicity, Single-dose toxicity evaluation” value in the data set with rats is “Not detected”. The “content of liver hydroxyproline decreased” value in the data set with BDL mouse model (10 mg/kg (G3), liver lysate) was determined as 39%. The “Hyaluronic acid values reduced” value is given as 51% with BDL mouse model (10 mg/kg (G3)) and 47% with BDL mouse model (30 mg/kg (G4)). Besides, in the data set on BDL mouse model (setting [3]), the AAR decreased worked out at 21%. In the data set on BDL mouse model (setting [3]), this compound came in with an ALT decreased of 37%. Also, the AST decreased with BDL mouse model (setting [3]) turned out to be 48%; in the data set on BDL mouse model (30 mg/kg oral once a day (G4), serum day 14, compared with BDL control group (G2)), 38%. Besides, the “Acta2 mRNA levels” value in the data set with BDL mouse model (liver tissue, qRT-PCR, BDL groups G3 (10 mg/kg) and G4 (30 mg/kg)) is “decreased”. Besides, the half-life in data set [1] is at least 5.53 h. Besides, in data set [2], the Plasma stability was above 99.9.
